Usually IC50 stands for the point on the concentration scale where inhibition reaches its midpoint. High values mean lower potency, low ones higher potency.

Data set [1] relates to A549. Put plainly: Cytotoxic activity against human A549 cells incubated for 48 hrs by MTT assay. It counts as functional, cell-based. To be noted: A549, 48 h.
The test system of another data set is Bel-7402. The data set is described as follows: Cytotoxic activity against human Bel7402 cells incubated for 48 hrs by MTT assay. It counts as functional, cell-based. The note with it: Bel-7402, 48 h. (Tetrazolium dyes change colour on reduction, which living cells bring about.)
Another data set has as its system SGC-7901. The data set is described as follows: Cytotoxic activity against human SGC7901 cells incubated for 48 hrs by MTT assay. It counts as functional, cell-based. The note with it: SGC-7901, 48 h.
The next data set relates to HeLa. The data set is described as follows: Cytotoxic activity against human HeLa cells incubated for 48 hrs by MTT assay. It counts as functional, cell-based.
In another data set the test system is HepG2. Put plainly: Cytotoxic activity against human HepG2 cells incubated for 48 hrs by MTT assay. It counts as functional, cell-based. The note with it: HepG2, 48 h.
Data set [2] has as its system Mus musculus. Put plainly: Toxicity in nude mouse xenografted with human A549 cells assessed as induction of mouse fatality at 3 mg/kg, ig dosed every day. It counts as organism-based. To be noted: in vivo, po. In general terms: A xenograft is tissue or cells of one species grown in another, often human tumour cells in immunodeficient mice.
The test system of data set [3] is Mus musculus. The data set is described as follows: Toxicity in nude mouse xenografted with human A549 cells assessed as induction of mouse fatality at 6 mg/kg, ig dosed every day. It counts as organism-based. To be noted: in vivo, po.
Data set [4] deals with Mus musculus. Put plainly: Toxicity in nude mouse xenografted with human A549 cells assessed as induction of mouse fatality at 12 mg/kg, ig dosed every day. It counts as organism-based. The note with it: in vivo, po.
Data set [5] has as its system Mus musculus. Put plainly: Toxicity in nude mouse xenografted with human A549 cells assessed as change in body weight at 3 mg/kg, ig dosed every day (reference value: 26.8 g). To be noted: in vivo, po. It counts as organism-based.
In data set [6] the test system is Mus musculus. The data set is described as follows: Toxicity in nude mouse xenografted with human A549 cells assessed as change in body weight at 6 mg/kg, ig dosed every day (reference value: 25.9 g). The note with it: in vivo, po. It counts as organism-based.
Data set [7] relates to Mus musculus. The data set is described as follows: Toxicity in nude mouse xenografted with human A549 cells assessed as change in body weight at 12 mg/kg, ig dosed every day (reference value: 25.8 g). It counts as organism-based. The note with it: in vivo, po.
The subject of data set [8] is A549. Put plainly: Antitumor activity against human A549 cells xenografted in nude mouse assessed as relative tumor volume at 3 mg/kg, ig dosed every day relative to initial tumor volume. It counts as functional.
Data set [9] concerns A549. The data set is described as follows: Antitumor activity against human A549 cells xenografted in nude mouse assessed as relative tumor volume at 6 mg/kg, ig dosed every day relative to initial tumor volume. It counts as functional.
In data set [10] the test system is A549. The data set is described as follows: Antitumor activity against human A549 cells xenografted in nude mouse assessed as relative tumor volume at 12 mg/kg, ig dosed every day relative to initial tumor volume. It counts as functional.
Data set [11] deals with A549. Put plainly: Antitumor activity against human A549 cells xenografted in nude mouse assessed as tumor growth inhibition at 3 mg/kg, ig dosed every day. It counts as functional. To be noted: A549, po, read-out: TGI.
Data set [12] has as its system A549. The data set is described as follows: Antitumor activity against human A549 cells xenografted in nude mouse assessed as tumor growth inhibition at 6 mg/kg, ig dosed every day. It counts as functional. The note with it: A549, po, read-out: TGI.
The test system of data set [13] is A549. The data set is described as follows: Antitumor activity against human A549 cells xenografted in nude mouse assessed as tumor growth inhibition at 12 mg/kg, ig dosed every day. It counts as functional. The note with it: A549, po, read-out: TGI.
The subject of data set [14] is A549. Put plainly: Antitumor activity against human A549 cells xenografted in nude mouse assessed as tumor growth inhibition at 3 to 12 mg/kg, ig dosed every day. It counts as functional, organism-based.

Turning to `CC1=C(OC(=O)N2CCN(C)CC2)C(=O)C=C2C1=CC=C1[C@@]2(C)CC[C@@]2(C)[C@@H]3C[C@](C)(C(=O)OCc4ccccc4)CC[C@]3(C)CC[C@]12C`, the IC50 in the data set on A549 [1] turned out to be 5180 nM; in the data set with Bel-7402, 1020 nM; with SGC-7901, 1280 nM; in the data set with HeLa, 2310 nM; in the data set on HepG2 it was 2610 nM. The Activity entry with Mus musculus [2] was “Non-Toxic”; in the data set with Mus musculus [3], “Non-Toxic”; in the data set with Mus musculus [4], “Non-Toxic”; in the data set with Mus musculus [5], 26.5 g; in the data set on Mus musculus [6] it was 27 g; in the data set with Mus musculus [7] it was 26.9 g. Besides, the “fold change (FC)” value in the data set with A549 [8] was determined as 0.76; with A549 [9], 0.63; in the data set with A549 [10], 0.55. For the same molecule, the inhibition in vivo at 3 mg/kg in the data set on A549 [11] is 46.1%. In addition, the inhibition in vivo at 6 mg/kg in the data set on A549 [12] amounted to 57.5%. Further, the inhibition in vivo at 12 mg/kg with A549 [13] stood at 71%. Besides, the TGI entry with A549 [14] is “Dose-dependent effect”.

The record behind these values is ChEMBL document CHEMBL4033734, “Synthesis of 3- and 29-substituted celastrol derivatives and structure-activity relationship studies of their cytotoxic activities” (Bioorg Med Chem Lett, 2017).
